The numbers were not newly measured in patent US7993390B2, “Implantable or insertable medical device resistant to microbial growth and biofilm formation” (Boston Scientific Scimed, Inc., priority 2002, dated 2011), which cites them from elsewhere.

Each structure is given as a SMILES string.

In this series the test system is most gram positive and gram negative aerobic and anaerobic bacteria, some yeast and fungi. The settings on record: most organisms tested.

As to `Oc1cc(Cl)ccc1Oc1ccc(Cl)cc1Cl` [triclosan], the MIC is given as less than 0.3 ppm.
